Key:
[1] = test system: potatoes (May Queen cultivar); assay: Yield survey of potatoes after foliar application of proline under low-nitrogen conditions; assay type: in vivo, potato; conditions: for Total tuber weight (per plant) / Total number of tubers (per plant): foliar spray 6 times at one-week intervals, harvest 3 months after planting, n = 6; for Total tuber weight (per plant): low-nitrogen soil (total nitrogen 0.6 g); for Total number of tubers (per plant): low-nitrogen soil; for Ratio of total number of tubers to spreader group / Ratio of total tuber weight to spreader group: same test, spreader group = 1.00
Experimental: The effects of foliar application of a proline solution on growth and yield were investigating using potatoes (May Queen cultivar). Potato tubers were placed in No. 7 pots containing 1.5 kg of Power Soil (Kureha Chemical). Under normal cultivation conditions, about 5 g of nitrogen fertilizer is used as base fertilizer; while in this cultivation test, cultivation was under low-nitrogen conditions.
(§1) Three foliar application groups were prepared—a spreader group (Approach B1, Kao), a urea group (spreader+0.87 mM urea), and a proline group (spreader+1.75 mM proline), and about 20 ml per plant was sprayed once a week beginning about a month after planting (immediately before flowering). The leaves were sprayed 6 times (6 weeks), and harvested 3 months after planting.
Aqueous solutions of a spreader, urea and proline were applied 6 times at one-week intervals to the leaf surfaces of potato plants 1 month after planting. These were cultivated for 3 months after planting, with 6 pots in each group and one stalk per plant. The tubers were harvested from each pot, and the tuber weight and number of tubers per pot was measured.

[2] = test system: potato leaf tissue; conditions: 24 hours after foliar application, compared with spreader and urea groups, n=6
Experimental: as §1

SMILES | Total tuber weight (per plant) [1] [g] | Total tuber weight (per plant) ([1]; listed as proline) [g] | Total number of tubers (per plant) [1] | Total number of tubers (per plant) ([1]; listed as proline) | Ratio of total number of tubers to spreader group [1] | Ratio of total tuber weight to spreader group [1] | Ratio of total tuber weight to spreader group ([1]; listed as proline) | 2-OG content in leaf tissue [2] | Total tuber weight (per plant) ([1]; listed as urea) [g] | Total number of tubers (per plant) ([1]; listed as urea)
O=C(O)[C@@H]1CCCN1 [Proline, proline] | 158.4 ± 18.0 | 158.4 | 8.2 ± 1.0 | 8.2 | 1.00 | 1.10 | 1.1 | significantly greater |  | 
NC(N)=O [Urea, urea, reference compound] | 140.1 ± 10.6 |  | 6.8 ± 1.6 |  | 0.83 | 0.96 |  |  | 140.1 | 6.8
